pIC50: −log10 of the molar value.
What was measured:
[1] = target: C-terminal domain (CTD) of human STING (Homo sapiens, UniProt Q86WV6); assay: STING binding FP assay III; parameters: recombinant human STING protein (155-379); settings: 10 nM STING (FP assay III according to the text); read-out: STING binding FP assay II, IC50
Method: The interaction between molecules and the C-terminal domain (CTD) of human STING was evaluated using a competition binding assay. In this assay, recombinant human STING protein (155-379) and a STING binding fluorescent probe were employed. Upon binding of the probe to STING, the rotation of the fluorescent probe is slowed due to the larger molecular size of the protein-bound complex. As a result, emitted light retains its plane of polarization, leading to an increase in fluorescence polarization. Molecules competing for the probe binding site displace the probe, which leads to rapid randomization of the polarization plane of the emitted light and a subsequent decrease in measured fluorescence polarization signal. Change in polarization was measured, allowing a comparative evaluation of the binding affinities of different compounds to the target protein.
The assay was performed in 96-well plates (ThermoFisher, cat.# 237108) containing 100µl : 10 µL test compound in 10% DMSO and buffer A (150 mM NaCl, 50 mM HEPES pH 7.5, 1 mM DTT) + 90 µL prepared master mix solution of: 4 nM fluorescein-labelled STING ligand (Probe 1; synthesis described above) in buffer A + 0.055% Tween-20 (v/v) and 35 nM STING in buffer A. Post mixing, plates were agitated at 600rpm and incubated for 20 min at room temperature. Subsequent measurements of the fluorescence polarization signal were made on a BioTek Synergy-H1 plate reader, using a polarization filter; Exc: 485/20 nm, Em: […]) with a gain-setting of 75. IC50 values were determined using a standard non-linear regression four-parameter curve fit in Graphpad Prism.
The procedure for STING binding FP assay III is the same as described for STING binding FP assay I, except for a lower STING concentration. In STING binding FP assay III, a concentration of 10 nM STING in buffer A was used.

STING = STING (Homo sapiens, UniProt Q86WV6); assay: Western Blot analysis of inhibition of STING activation in HFF-1 cells; format: cell-based; parameters: host or cells: HFF-1 human foreskin fibroblasts; settings: for STING, TBK1 and IRF1 phosphorylation: 2 h or 5 h; for phosphorylation of STING, IRF1 or TBK1 (agonism): compound as single agent, no activation
Chain of STING (Q86WV6 whole entry, the tested form may be a part): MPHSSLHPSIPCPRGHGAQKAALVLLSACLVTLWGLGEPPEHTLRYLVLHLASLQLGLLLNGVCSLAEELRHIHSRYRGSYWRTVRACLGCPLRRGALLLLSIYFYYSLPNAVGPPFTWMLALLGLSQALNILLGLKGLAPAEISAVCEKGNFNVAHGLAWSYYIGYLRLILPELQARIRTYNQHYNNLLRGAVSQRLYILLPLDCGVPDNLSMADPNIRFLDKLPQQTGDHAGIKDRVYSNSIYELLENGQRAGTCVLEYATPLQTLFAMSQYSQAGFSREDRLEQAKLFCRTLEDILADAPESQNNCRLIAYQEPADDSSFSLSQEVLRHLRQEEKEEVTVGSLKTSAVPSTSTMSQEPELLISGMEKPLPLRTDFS
Method: To assess whether S1 STING ligands inhibit STING activation, primary human skin fibroblasts (Figure 5) or HFF-1 cells (Figure 6) were treated with various compounds which comprise only an S1 ligand domain and a Linker domain before undergoing Western Blot analysis as described below.
The cells were lysed and analysed on WB. […] The WB membrane was probed for p-STING, STING, p-IRF3, p-TBK1, and Vinculin.

[2] = 5 µM for 15 min prior to 300 nM diABZI
[3] = 5 µM for 15 min prior to 8 µg/mL cGAMP

Chain of C-terminal domain (CTD) of human STING (Q86WV6 155-379): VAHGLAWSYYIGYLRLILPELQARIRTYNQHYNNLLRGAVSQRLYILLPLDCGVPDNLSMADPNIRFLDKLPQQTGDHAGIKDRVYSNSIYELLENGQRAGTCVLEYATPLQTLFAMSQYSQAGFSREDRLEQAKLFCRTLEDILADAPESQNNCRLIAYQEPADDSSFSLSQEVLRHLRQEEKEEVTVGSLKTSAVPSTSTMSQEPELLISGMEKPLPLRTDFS

Row | Molecule | pIC50 [1] | STING, TBK1 and IRF1 phosphorylation (STING; [2]) | STING, TBK1 and IRF1 phosphorylation (STING; [3]) | phosphorylation of STING, IRF1 or TBK1 (agonism) (STING)
1 | CCn1nc(C)cc1C(=O)Nc1nc2cc(C(N)=O)ccc2n1CCC(CCn1c(NC(=O)c2cc(C)nn2CC)nc2cc(C(N)=O)ccc21)OCC(=O)NCCOCCOCCOCC(=O)N[C@H](C(=O)N1C[C@H](O)C[C@H]1C(=O)NCc1ccc(-c2scnc2C)cc1)C(C)(C)C [Example 4, N-[(S)-1-{[(2S,4R)-4-Hydroxy-2-({[p-(4-methyl-1,3-thiazol-5-yl)phenyl]methyl}carbamoyl)-1-pyrrolidinyl]carbonyl}-2,2-dimethylpropyl]11-[({3-[5-carbamoyl-2-(1-ethyl-3-methyl-5-pyrazolylcarbonylamino)-1H-1,3-benzimidazol-1-yl]-1-{2-[5-carbamoyl-2-(1-ethyl-3-methyl-5-pyrazolylcarbonylamino)-1H-1,3-benzimidazol-1-yl]ethyl}propoxy}methyl)carbonylamino]-3,6,9-trioxaundecanamide] | 8.66 | – | – | –
2 | CCn1nc(C)cc1C(=O)N=c1n(C)c2cc(C(N)=O)ccc2n1CCC(CCn1c(=NC(=O)c2cc(C)nn2CC)n(C)c2cc(C(N)=O)ccc21)OCC(=O)NCCOCCOCCOCCOCCOCC(=O)N[C@H]1C[C@@H](C(=O)N[C@@H]2CCCc3ccccc32)N(C(=O)[C@@H](NC(=O)[C@H](C)NC)C2CCCCC2)C1 (some centres unmarked) [Example 13] | 8.39 | – | – | –
3 | CCn1nc(C)cc1C(=O)N=c1n(C)c2cc(C(N)=O)ccc2n1CCC(CCn1c(=NC(=O)c2cc(C)nn2CC)n(C)c2cc(C(N)=O)ccc21)OCC(=O)NCCOCCOCCOCCOCCC(=O)NCCOCCOCCOCC(=O)N[C@H]1C[C@@H](C(=O)N[C@@H]2CCCc3ccccc32)N(C(=O)[C@@H](NC(=O)[C@H](C)NC)C2CCCCC2)C1 (some centres unmarked) [Example 18] | 8.46 | – | – | –
4 | CCn1nc(C)cc1C(=O)N=c1n(C)c2cc(C(N)=O)ccc2n1CCC(CCn1c(=NC(=O)c2cc(C)nn2CC)n(C)c2cc(C(N)=O)ccc21)OCC(=O)NCCOCCOCCOCCOCCC(=O)NCCOCCNc1ccc(C(=O)NC2CCC(=O)NC2=O)c(OC)c1 (centres unmarked) [Example 34, N-(2-{2-[4-(N-2,6-Dioxo-3-piperidylcarbamoyl)-3-anisidino]ethoxy}ethyl)15-{[(3-{5-carbamoyl-2-[(1-ethyl-3-methyl-5-pyrazolyl)carbonylimino]-3-methyl-2,3-dihydro-1H-1 ,3-benzimidazol-1-yl}-1-(2-{5-carbamoyl-2-[(1-ethyl-3-methyl-5-pyrazolyl)carbonylimino]-3-methyl-2,3-dihydro-1H-1 ,3-benzimidazol-1-yl}ethyl)propoxy)methyl]carbonylamino}-4,7,10,13-tetraoxapentadecanamide] | 8.43 | – | – | –
5 | CCn1nc(C)cc1C(=O)N=c1n(C)c2cc(C(N)=O)ccc2n1CCC(CCn1c(=NC(=O)c2cc(C)nn2CC)n(C)c2cc(C(N)=O)ccc21)OCC(=O)NCCOCCOCCOCCOCCC(=O)NCCC1CCN(c2ccc(C(=O)NC3CCC(=O)NC3=O)c(OC)c2)CC1 (centres unmarked) [Example 35, N-(2-{1-[4-(N-2,6-Dioxo-3-piperidylcarbamoyl)-3-methoxyphenyl]-4-piperidyl}ethyl)15-{[(3-{5-carbamoyl-2-[(1-ethyl-3-methyl-5-pyrazolyl)carbonylimino]-3-methyl-2,3-dihydro-1H-1 ,3-benzimidazol-1-yl}-1-(2-{5-carbamoyl-2-[(1-ethyl-3-methyl-5-pyrazolyl)carbonylimino]-3-methyl-2,3-dihydro-1H-1 ,3-benzimidazol-1-yl}ethyl)propoxy)methyl]carbonylamino}-4,7,10,13-tetraoxapentadecanamide] | 7.99 | – | – | –
6 | CCn1nc(C)cc1C(=O)N=c1n(C)c2cc(C(N)=O)ccc2n1CCC(CCn1c(=NC(=O)c2cc(C)nn2CC)n(C)c2cc(C(N)=O)ccc21)OCC(=O)NCCOCCOCCOCCOCCC(=O)N1CCN(C2CCN(c3ccc(C(=O)NC4CCC(=O)NC4=O)c(OC)c3)CC2)CC1 (centres unmarked) [Example 36, N-[15-(4-{1-[4-(N-2,6-Dioxo-3-piperidylcarbamoyl)-3-methoxyphenyl]-4-piperidyl}-1-piperazinyl)-15-oxo-3,6,9,12-tetraoxapentadecyl](3-{5-carbamoyl-2-[(1-ethyl-3-methyl-5-pyrazolyl)carbonylimino]-3-methyl-2,3-dihydro-1H-1 ,3-benzimidazol-1-yl}-1-(2-{5-carbamoyl-2-[(1-ethyl-3-methyl-5-pyrazolyl)carbonylimino]-3-methyl-2,3-dihydro-1 H-1 ,3-benzimidazol-1-yl}ethyl)propoxy)acetamide] | 8.00 | – | – | –
7 | CCn1nc(C)cc1C(=O)N=c1n(C)c2cc(C(N)=O)ccc2n1CCC(CCn1c(=NC(=O)c2cc(C)nn2CC)n(C)c2cc(C(N)=O)ccc21)OCC(=O)NCCOCCOCCOCCOCCC(=O)NCCC1CCN(c2ccc(C(=O)NC3CCC(=O)NC3=O)c(F)c2)CC1 (centres unmarked) [Example 38, N-(2-{1-[4-(N-2,6-Dioxo-3-piperidylcarbamoyl)-3-fluorophenyl]-4-piperidyl}ethyl)15-{[(3-{5-carbamoyl-2-[(1-ethyl-3-methyl-5-pyrazolyl)carbonylimino]-3-methyl-2,3-dihydro-1 H-1 ,3-benzimidazol-1-yl}-1-(2-{5-carbamoyl-2-[(1-ethyl-3-methyl-5-pyrazolyl)carbonylimino]-3-methyl-2,3-dihydro-1 H-1 ,3-benzimidazol-1-yl}ethyl)propoxy)methyl]carbonylamino}-4,7,10,13-tetraoxapentadecanamide] | 8.59 | – | – | –
8 | CCn1nc(C)cc1C(=O)N=c1n(C)c2cc(C(N)=O)ccc2n1CCC(CCn1c(=NC(=O)c2cc(C)nn2CC)n(C)c2cc(C(N)=O)ccc21)OCC(=O)N1CCC[C@H]1c1ccccc1 (stereo partly drawn) [Example A25, 1-(3-{2-[(S)-2-Phenyl-1-pyrrolidinyl]-2-oxoethoxy}-5-{5-carbamoyl-2-[(1-ethyl-3-methyl-5-pyrazolyl)carbonylimino]-3-methyl-2,3-dihydro-1H-1,3-benzimidazol-1-yl}pentyl)-2-[(1-ethyl-3-methyl-5-pyrazolyl)carbonylimino]-3-methyl-2,3-dihydro-1H-1,3-benzimidazole-5-carboxamide] | – | lower compared to cells treated with diABZI c3 alone | lower compared to cells treated with cGAMP alone (with the exception of TBK1 in lane A25) | no phosphorylation of STING, IRF1 or TBK1 was observed
9 | CCn1nc(C)cc1C(=O)N=c1n(C)c2cc(C(N)=O)ccc2n1CCC(CCn1c(=NC(=O)c2cc(C)nn2CC)n(C)c2cc(C(N)=O)ccc21)OCC(=O)N1CCC[C@H]1C(=O)N1CCc2cc(OC)ccc2C1 (stereo partly drawn) [Example A26, 1-[3-(2-{(S)-2-[(6-Methoxy-1,2,3,4-tetrahydro-2-isoquinolyl)carbonyl]-1-pyrrolidinyl}-2-oxoethoxy)-5-{5-carbamoyl-2-[(1-ethyl-3-methyl-5-pyrazolyl)carbonylimino]-3-methyl-2,3-dihydro-1H-1,3-benzimidazol-1-yl}pentyl]-2-[(1-ethyl-3-methyl-5-pyrazolyl)carbonylimino]-3-methyl-2,3-dihydro-1H-1,3-benzimidazole-5-carboxamide] | – | lower compared to cells treated with diABZI c3 alone | lower compared to cells treated with cGAMP alone | no phosphorylation of STING, IRF1 or TBK1 was observed
10 | N-(2-{1-[4-(N-2,6-Dioxo-3-piperidylcarbamoyl)-3-chlorophenyl]-4-piperidyl}ethyl)15-{[(3-{5-carbamoyl-2-[(1-ethyl-3-methyl-5-pyrazolyl)carbonylimino]-3-methyl-2,3-dihydro-1H-1 ,3-benzimidazol-1-yl}-1-(2-{5-carbamoyl-2-[(1-ethyl-3-methyl-5-pyrazolyl)carbonylimino]-3-methyl-2,3-dihydro-1H-1 ,3-benzimidazol-1-yl}ethyl)propoxy)methyl]carbonylamino}-4,7,10,13-tetraoxapentadecanamide [Example 37] | 8.43 | – | – | –

From patent EP4663632A1, “COMPOUNDS USEFUL FOR THE MODULATION OF THE ACTIVITY OF STING” (Sulis Therapeutics ApS, priority 2024, dated 2025)
